SMILES strings stand for the structures. Bounds are passed on as bounds.

For data set [1], the system named is KG1 (human acute myeloid leukaemia). Briefly: MTT cytotoxicity assay, KG1. It is filed as cell-based. Particulars: for IC50: Homo sapiens, MTT, 72 h exposure, three independent experiments, read-out: Cytotoxic activity IC50 (95% CI) KG1; for Selectivity index KG1: ratio of cytotoxicity L929 / KG1. As to the method:
(§1) In this study, the IC50 was obtained in micromolar concentrations, using the colourimetric MTT (3-(4,5-dimethylthiazol-2-yl)-2,5-diphenyl tetrazolium bromide)) assay, and doxorubicin was used as the positive control. […] The activity against the non-tumoural murine fibroblast cell line L929 was also evaluated in order to study the cytotoxicity behaviour of each compound and to understand their respective relative selectivity. The selectivity index was obtained using the ratio of measured cytotoxicity between the L929 cell line and each of the cancer cell lines, and the results are presented in Table 2.
(§2) The in vitro cytotoxicity activity of the compounds was evaluated by the colorimetric MTT (3-(4,5-dimethylthiazol-2-yl)-2,5-diphenyl tetrazolium bromide)) assay using the following tumor cell lines: HCT-116 (colon carcinoma), PC3 (prostate), SNB-19 (glioblastoma), K-562 (myelogenous leukaemia), HL-60 (human promyelocytic leukaemia), B16 (murine melanoma), A549 (human lung carcinoma), KG1 (human acute myeloid leukaemia), and RAJI (human Burkitt’s lymphoma), which were provided by the National Cancer Institute (Bethesda, MD, USA). The L929 cell line (mouse fibroblast L cells NCTC clone 929) employed in this study as a control cell line was obtained from the American Type Culture Collection (Manassas, VA, USA). The cell lines (Table S4) were maintained in flasks containing RPMI 1640 or DMEM medium supplemented with 10% bovive fetal sérum, 100 U/mL penicillin, and 100 μg/mL streptomycin at 37 °C and in 5% CO2 atmosphere. The compounds tested were dissolved in DMSO. Doxorubicin served as the positive control. Cell treatments were performed with three replicates and the cells were mycoplasma free. After 72 h incubation, 100 μL of MTT solution (0.5 mg/mL) was added to each well, and the cells were incubated for 3 h. The supernatant was removed and 100 μL of DMSO was added and the absorbance at 595 nm was measured using Victor Nivo Multimode plate reader (PerkinElmer, Waltham, MA, USA). The absorbances obtained were used to calculate the IC50 values by nonlinear regression employing appropriate statistical software.
(§3) The in vitro cytotoxicity activity of compounds was evaluated by the colorimetric MTT (3-(4,5-dimethylthiazol-2-yl)-2,5-diphenyl tetrazolium bromide)) assay using tumor cell lines: HCT-116 (colon carcinoma), PC3 (prostate), SNB-19 (glioblastoma), K-562 (myelogenous leukaemia), HL-60 (human promyelocytic leukaemia), B16 (murine melanoma), A549 (human lung carcinoma), KG1 (human acute myeloid leukaemia) and RAJI (human Burkitt's lymphoma), which were provided by the National Cancer Institute (Bethesda, MD, USA). The L929 cell line (mouse fibroblast L cells NCTC clone 929) employed in this study as a control cell line was obtained from the American Type Culture […]
(§4) Collection (Manassas, VA, USA). Cell lines (Table 01) were maintained in flasks containing RPMI 1640 or DMEM medium supplemented with 10% bovive fetal sérum, 100 U/mL penicillin, and 100 μg/mL streptomycin at 37 °C and 5% CO2 atmosphere.
(§5) Compounds tested were dissolved in DMSO. Doxorubicin served as positive control. Cell treatments were performed with three replicates and cells were mycoplasma-free. After 72 h incubation, 100 μL of MTT solution (0.5 mg/mL) was added to each well, and cells were incubated for 3 h. The supernatant was removed and 100 μL of DMSO was added and the absorbance at 595 nm was measured using Victor Nivo Multimode plate reader
On the technique in general: Formazan colour is commonly taken as a measure of viable cells.

Data set [2] relates to HCT-116 (human colorectal carcinoma). Briefly: MTT cytotoxicity assay, HCT-116. It is filed as cell-based. Particulars: for IC50: Homo sapiens, HCT-116, 72 h, MTT, 72 h exposure, three independent experiments, read-out: Cytotoxic activity IC50 (95% CI) HCT-116; for Selectivity index HCT-116: ratio of cytotoxicity L929 / HCT-116. The method, then: as §1, §2, §3, §4, §5
Data set [3] deals with A549 (human lung carcinoma). Briefly: MTT cytotoxicity assay, A549. The data set is classed as cell-based. Particulars: for IC50: Homo sapiens, A549, MTT, 72 h exposure, three independent experiments, read-out: Cytotoxic activity IC50 (95% CI) A549; for Selectivity index A549: ratio of cytotoxicity L929 / A549. As to the method: as §1, §2, §3, §4, §5
Data set [4] has as its system K-562 (human chronic myeloid leukaemia). Briefly: MTT cytotoxicity assay, K-562. It is filed as cell-based. The note with it: for IC50: Homo sapiens, K562, MTT, 72 h exposure, three independent experiments, read-out: Cytotoxic activity IC50 (95% CI) K-562; for Selectivity index K-562: ratio of cytotoxicity L929 / K-562. The method, then:
as §1, §2, §3, §4, §5

Data set [5] deals with B16 (murine melanoma). In words: MTT cytotoxicity assay, B16. It is filed as cell-based. Particulars: for IC50: Mus musculus, MTT, 72 h exposure, three independent experiments, read-out: Cytotoxic activity IC50 (95% CI) B16; for Selectivity index B16: ratio of cytotoxicity L929 / B16. The method, then: as §1, §2, §3, §4, §5
The subject of data set [6] is PC3 (human prostate adenocarcinoma). Briefly: MTT cytotoxicity assay, PC3. The note with it: for IC50: Homo sapiens, MTT, 72 h exposure, three independent experiments, read-out: Cytotoxic activity IC50 (95% CI) PC3; for Selectivity index PC3: ratio of cytotoxicity L929 / PC3. The data set is classed as cell-based. As to the method:
as §1, §2, §3, §4, §5

In data set [7] the test system is RAJI (human Burkitt’s lymphoma). Briefly: MTT cytotoxicity assay, RAJI. It is filed as cell-based. Particulars: for IC50: Homo sapiens, Raji, 72 h, MTT, 72 h exposure, three independent experiments, read-out: Cytotoxic activity IC50 (95% CI) RAJI; for Selectivity index RAJI: ratio of cytotoxicity L929 / RAJI. As to the method:
as §1, §2, §3, §4, §5

Data set [8] has as its system SNB-19 (human astrocytoma). Briefly: MTT cytotoxicity assay, SNB-19. The data set is classed as cell-based. The note with it: for IC50: Homo sapiens, SNB-19, MTT, 72 h exposure, three independent experiments, read-out: Cytotoxic activity IC50 (95% CI) SNB-19; for Selectivity index SNB-19: ratio of cytotoxicity L929 / SNB-19. The method, then: as §1, §2, §3, §4, §5

Data set [9] relates to HL60 (human pro-myelocytic leukaemia). Briefly: MTT cytotoxicity assay, HL60. Particulars: for IC50: Homo sapiens, HL-60, 72 h, MTT, 72 h exposure, three independent experiments, read-out: Cytotoxic activity IC50 (95% CI) HL60; for Selectivity index HL60: ratio of cytotoxicity L929 / HL60. It is filed as cell-based. The method, then: as §1, §2, §3, §4, §5
A short description of data set [10]: MTT cytotoxicity assay, L929 control line. It is filed as cell-based, mouse. The note with it: mouse, L929 fibroblast cells (non-tumoral control line), 72 h exposure, read-out: Cytotoxic activity IC50 (95% CI) L929. The method, then:
as §1, §2, §3, §4, §5

For orientation: IC50 means the midpoint of a concentration-inhibition curve. Regarding `CC1(C)OC2=C(C(=O)C(=O)c3ccccc32)C1n1cc(CNC2=CC(=O)c3cc4ccccc4cc3C2=O)nn1` (centres unmarked) [Compound 19e, 3-(4-(((1,4-dioxo-1,4-dihydroanthracen-2-yl)amino)methyl)-1H-1,2,3-triazol-1-yl)-2,2-dimethyl-2,3-dihydronaphtho[1,2-b]furan-4,5-dione], in [1], the IC50 was 4.77 µM and the “Selectivity index KG1” value is recorded as 1.0. In data set [2], the IC50 is 2.63 µM and the “Selectivity index HCT-116” value was 1.8. In addition, in data set [3], the IC50 is 6.14 µM and the “Selectivity index A549” value is on record as 0.8. Further, in [4], the 50% inhibitory concentration (IC50) was found to be 8.13 µM and the “Selectivity index K-562” value stood at 0.6. In [5], the IC50 was 3.97 µM and the “Selectivity index B16” value is given as 1.2. Also, in data set [6], the IC50 was 3.48 µM and the “Selectivity index PC3” value is recorded as 1.4. In [7], the IC50 came out at 1.69 µM and the “Selectivity index RAJI” value was 2.9. Besides, in [8], the IC50 is 3.52 µM and the “Selectivity index SNB-19” value worked out at 1.4. For the same compound, in data set [9], the IC50 stood at 0.86 µM and the “Selectivity index HL60” value is on record as 5.6. The IC50 at 72 h in [10] is 4.83 µM.

As to `O=C1C(=O)c2ccccc2C2=C1CC(Cn1cc(CNC3=CC(=O)c4c(I)cccc4C3=O)nn1)O2` (centres unmarked) [Compound 20a, 2-((4-(((5-iodo-1,4-dioxo-1,4-dihydronaphthalen-2-yl)amino)methyl)-1H-1,2,3-triazol-1-yl)methyl)-2,3-dihydronaphtho[1,2-b]furan-4,5-dione], in [1], the IC50 worked out at 25.3 µM and the “Selectivity index KG1” value was found to be 0.2. In data set [2], the IC50 amounted to 5.47 µM and the “Selectivity index HCT-116” value came to 1.0. Further, in data set [3], the IC50 was 15.3 µM and the “Selectivity index A549” value was found to be 0.4. For the same compound, in data set [4], the IC50 worked out at 5.56 µM and the “Selectivity index K-562” value worked out at 1.0. In addition, in [5], the IC50 worked out at 4.19 µM and the “Selectivity index B16” value is listed as 1.3. Moreover, in [6], the IC50 came to 9.79 µM and the “Selectivity index PC3” value was 0.6. In data set [7], the IC50 came to 2.8 µM and the “Selectivity index RAJI” value came to 2.0. In data set [8], the IC50 was found to be 8.5 µM and the “Selectivity index SNB-19” value was found to be 0.7. For the same compound, in data set [9], the IC50 was 2.84 µM and the “Selectivity index HL60” value worked out at 2.0. In [10], the IC50 at 72 h stood at 5.59 µM.

Regarding `O=C1C(=O)c2ccccc2C2=C1CC(Cn1cc(CNC3=CC(=O)c4c(O)cccc4C3=O)nn1)O2` (centres unmarked) [Compound 20b, 2-((4-(((5-hydroxy-1,4-dioxo-1,4-dihydronaphthalen-2-yl)amino)methyl)-1H-1,2,3-triazol-1-yl)methyl)-2,3-dihydronaphtho[1,2-b]furan-4,5-dione], in data set [1], the IC50 came to 23.3 µM and the “Selectivity index KG1” value worked out at 1.2. In data set [2], the IC50 came out at 7.22 µM and the “Selectivity index HCT-116” value is reported as 3.8. In addition, in [3], the IC50 came to 18.9 µM and the “Selectivity index A549” value amounted to 1.5. Further, in data set [4], the IC50 came to 12.8 µM and the “Selectivity index K-562” value was found to be 2.2. In data set [5], the IC50 was 4.52 µM and the “Selectivity index B16” value stood at 6.1. In [6], the IC50 was 10.2 µM and the “Selectivity index PC3” value is given as 2.7. In addition, in data set [7], the half-maximal inhibitory concentration (IC50) stood at 2.49 µM and the “Selectivity index RAJI” value was 11.1. In data set [8], the concentration for half-maximal inhibition (IC50) is 9.47 µM and the “Selectivity index SNB-19” value is listed as 2.9. In [9], the IC50 stood at 5 µM and the “Selectivity index HL60” value was found to be 5.5. Also, in data set [10], the IC50 at 72 h turned out to be 27.6 µM.

Take `COc1cccc2c1C(=O)C(NCc1cn(CC3CC4=C(O3)c3ccccc3C(=O)C4=O)nn1)=CC2=O` (centres unmarked) [Compound 20c, 2-((4-(((8-methoxy-1,4-dioxo-1,4-dihydronaphthalen-2-yl)amino)methyl)-1H-1,2,3-triazol-1-yl)methyl)-2,3-dihydronaphtho[1,2-b]furan-4,5-dione]: the IC50 is 39.4 µM in [1]; more than 100 µM in data set [2]; 24.5 µM in data set [3]; more than 100 µM in [4]; 44.1 µM in [5]; more than 100 µM in data set [6]. In addition, the IC50 was determined as 37 µM in [7], 49.6 µM in [8] and 38.3 µM in data set [9]. The “Selectivity index KG1” value in data set [1] was determined as 2.5. Moreover, the “Selectivity index A549” value in data set [3] was 4.1. Moreover, in data set [5], the “Selectivity index B16” value stood at 2.3. For the same compound, the “Selectivity index RAJI” value in [7] is on record as 2.7. In addition, the “Selectivity index SNB-19” value in data set [8] stood at 2.0. The “Selectivity index HL60” value in data set [9] was found to be 2.6. The IC50 at 72 h in [10] is more than 100 µM.

`O=C1C(=O)c2ccccc2C2=C1CC(Cn1cc(CNC3=CC(=O)c4cccc(OCc5ccccc5)c4C3=O)nn1)O2` (centres unmarked) [Compound 20d, 2-((4-(((8-benzyloxy-1,4-dioxo-1,4-dihydronaphthalen-2-yl)amino)methyl)-1H-1,2,3-triazol-1-yl)methyl)-2,3-dihydronaphtho[1,2-b]furan-4,5-dione]: in data set [1], the IC50 stood at 8.9 µM and the “Selectivity index KG1” value stood at 1.1. In [2], the IC50 is 6.16 µM and the “Selectivity index HCT-116” value is 1.5. Also, in data set [3], the IC50 came out at 27.4 µM and the “Selectivity index A549” value was 0.3. In addition, in data set [4], the half-inhibitory concentration (IC50) was found to be 10.4 µM and the “Selectivity index K-562” value is given as 0.9. In data set [5], the IC50 was 9.21 µM and the “Selectivity index B16” value was determined as 1.0. In addition, in [6], the IC50 came out at 12.8 µM and the “Selectivity index PC3” value is on record as 0.7. Moreover, in data set [7], the IC50 was 4.32 µM and the “Selectivity index RAJI” value is on record as 2.2. For the same compound, in [8], the 50% inhibitory concentration (IC50) was 10.2 µM and the “Selectivity index SNB-19” value worked out at 0.9. In data set [9], the IC50 was found to be 3.74 µM and the “Selectivity index HL60” value was found to be 2.5. In addition, the IC50 at 72 h in data set [10] was found to be 9.43 µM.
